# Experimental data from article PMC2680146 (Chemical biology & drug design, 2008).
# “Also recorded” adds a separate entry of the source.
# Assays:
# Photolysis = assay type: physicochemical; conditions: 300-400 nm light (λmax 350 nm)
# yPFTase [1] = test: yPFTase substrate studies, continuous fluorescence assay; assay type: biochemical, Saccharomyces cerevisiae
# yPFTase [2] = test: yPFTase-catalyzed prenylation, product analysis by HPLC; assay type: biochemical, Saccharomyces cerevisiae; conditions: FPP source pure FPP or photolysis product of 5 or 9
# rPFTase = rPFTase (Rattus norvegicus, UniProt Q02293+Q04631); test: X-ray crystallography of rPFTase:FPP:15 complex; assay type: binding; conditions: FPP bound in presence of 15 vs PDB 1KZO
# [3] = λirrad 350 nm; ref [16]; cited from earlier work
# PFTase = conditions: literature comparison value; ref [46]; cited from earlier work
# Sequence of rPFTase (Q02293 whole entry, one chain of several): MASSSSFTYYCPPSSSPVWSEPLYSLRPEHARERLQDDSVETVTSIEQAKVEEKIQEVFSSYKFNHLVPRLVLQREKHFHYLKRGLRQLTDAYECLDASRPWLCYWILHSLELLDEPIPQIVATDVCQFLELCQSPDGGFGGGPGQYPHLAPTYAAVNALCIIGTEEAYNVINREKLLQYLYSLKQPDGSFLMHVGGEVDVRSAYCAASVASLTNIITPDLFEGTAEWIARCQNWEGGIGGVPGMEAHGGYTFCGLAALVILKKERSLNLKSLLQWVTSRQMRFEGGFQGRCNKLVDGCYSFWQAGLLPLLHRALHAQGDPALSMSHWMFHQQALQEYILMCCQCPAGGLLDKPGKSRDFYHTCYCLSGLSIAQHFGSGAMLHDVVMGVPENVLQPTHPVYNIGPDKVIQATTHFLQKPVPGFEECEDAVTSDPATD
Molecule,Qu1 (single-photon uncaging efficiency) (Photolysis; 25 mM NH4HCO3),photolysis product (Photolysis; RP-HPLC),substrate behaviour (yPFTase [1]; prior to uncaging),prenylated product formed (yPFTase [2]),also measured
"COc1cc(C(C)OP(=O)(O)OP(=O)(O)OC/C=C(\C)CC/C=C(\C)CCC=C(C)C)c([N+](=O)[O-])cc1OC (stereo not drawn) [Compound 9, β-1-(4,5-dimethoxy-nitrophenyl)ethyl farnesyl diphosphate]",0.08,release of farnesyl diphosphate; also recorded: efficiently release FPP upon irradiation,poorer substrate prior to uncaging; also recorded: poor substrates for PFTase,same prenylated product,"uncaging rate constant k (Photolysis; 25 mM NH4HCO3, RP-HPLC, first-order kinetics): 0.12 min⁻¹; rate of enzymatic prenylation relative to FPP (yPFTase [1]; prior to uncaging): 7.6%"
"CC(C)=CCC/C(C)=C/CC/C(C)=C/COP(=O)(O)OP(=O)(O)OCc1ccccc1[N+](=O)[O-] [Compound 5, β-(2-nitrobenzyl)farnesyl diphosphate]",0.70,release of farnesyl diphosphate; also recorded: efficiently release FPP upon irradiation,better substrate than compound 9; also recorded: poor substrates for PFTase,same prenylated product,interference of photolysis byproducts with catalysis (yPFTase [1]; after irradiation): do not interfere with catalysis in any way
"CC(C)=CCC/C(C)=C/CC/C(C)=C/CO[P@@](=O)(O)OP(=O)(O)O (stereo in doubt) [FPP, farnesyl diphosphate, reference compound]",,,,same prenylated product,rms deviation over all FPP atoms (rPFTase): 0.546 Å
COc1cc(C(C)OP(=O)(O)OP(=O)(O)OP(=O)(O)OC[C@H]2O[C@@H](n3cnc4c(N)ncnc43)[C@H](O)[C@@H]2O)c([N+](=O)[O-])cc1OC (stereo partly shown) [DMNPE-ATP],,,,,Qu1 (quantum efficiency) [3]: 0.07 mol·ein^-1; Uncaging Rate [3]: 18.0 s⁻¹
CVIM,,,,,IC50 (PFTase): 165 nM
